Results: article PMC9358681 (Biochemical pharmacology, 2022)
Several values for one entry are separate records, joined by “and”; a condition that tells them apart may be missing. Equal values may be shown once. Read-outs that look alike come from different tables or passages of the source.

Key:
human A2BAR [1] = molecular target: T1, human A2BAR (Homo sapiens, UniProt P29275); experiment: [3H]PSB-603 displacement on CHO-spap-hA2BAR membranes; format: binding
T1 construct: host or cells: CHO-spap
T1 sequence (P29275 1-332): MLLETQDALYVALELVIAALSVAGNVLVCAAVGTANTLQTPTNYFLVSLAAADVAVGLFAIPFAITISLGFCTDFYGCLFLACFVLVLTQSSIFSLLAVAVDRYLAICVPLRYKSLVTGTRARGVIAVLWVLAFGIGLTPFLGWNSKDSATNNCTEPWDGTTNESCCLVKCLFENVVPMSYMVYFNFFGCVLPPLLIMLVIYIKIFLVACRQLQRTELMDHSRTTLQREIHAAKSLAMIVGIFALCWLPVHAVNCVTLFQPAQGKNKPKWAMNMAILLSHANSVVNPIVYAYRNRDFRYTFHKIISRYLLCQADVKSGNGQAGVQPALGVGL

human A2BAR [2] = molecular target: T1, human A2BAR; experiment: [3H]PSB-603 competition association assay; format: binding; conditions: for RT: RT = 1/koff, competing ligand at 1.0-fold IC50, up to 3 hr; for Kd: read-out: Kinetic KD (koff/kon)
Protocol: In all radioligand binding experiments, CHO-spap-hA2BAR membranes were thawed and homogenized using an Ultra Turrax homogenizer at 24,000 rpm (IKA-Werke GmbH & Co.KG, Staufen, Germany), diluted in assay buffer to the desired concentration (10–30 μg per well or Eppendorf tube). All materials were brought to 25 °C, 30 min prior to the experiment. ZM241385 (10 μM) was used to determine nonspecific binding (NSB).
Addition of CHO-spap-hA2BAR membrane aliquots initiated the association. The amount of receptor-bound radioligand was determined at different time points up to 3 hr. After 3 hr the incubation was terminated and samples were obtained as described under “Displacement experiments”.
All competition association data were globally fitted.

[3] = […] [3H]PSB-603, 2 h, 25 °C, read-out: Ki (converted)
[4] = […] [3H]PSB-603, 2 h, 25 °C, read-out: pKi (converted)

Q: Which Ki (human A2BAR [1]; [3]) does the source give for CCCn1c(=O)c2[nH]c(-c3ccc(OCC(=O)Nc4cnccn4)cc3)nc2n(CCC)c1=O [Compound 10, 2-(4-(2,6-dioxo-1,3-dipropyl-2,3,6,7-tetrahydro-1H-purin-8-yl)phenoxy)-N-(pyrazin-2-yl)acetamide] here?
A: 6950 nM

Q: Which results are given for CCCn1c(=O)c2[nH]c(-c3ccc(OCC(=O)Nc4ccc(C)cc4)cc3)nc2n(CCC)c1=O [Compound 12]?
A: Ki (human A2BAR [1]; [3]): 3.42 nM; RT (human A2BAR [2]; 25 °C): 55 ± 25 min; Kd (human A2BAR [2]): 2.7 ± 1.5 nM; koff (human A2BAR [2]; read-out: koff (converted)): 0.0003 s⁻¹; kon (human A2BAR [2]; read-out: kon (converted)): 117000 M⁻¹ s⁻¹

Q: For CCCn1c(=O)c2[nH]c(-c3ccc(OCC(=O)NC4CCC4)cc3)nc2n(CCC)c1=O [Compound 4, N-cyclobutyl-2-(4-(2,6-dioxo-1,3-dipropyl-2,3,6,7-tetrahydro-1H-purin-8-yl)phenoxy)acetamide], which Ki (human A2BAR [1]; [3]) is on record?
A: 61400 nM

Q: What about the Ki (human A2BAR [1]; […] [3H]PSB-603, 2 h, 25 °C, read-out: affinity (Ki)) of the same molecule?
A: 61400 nM

Q: For “2-(4-(2,6-dioxo-1,3-dipropyl-2,3,6,7-tetrahydro-1H-purin-8-yl) phenoxy)-N-(pyridin-4-ylmethyl)acetamide [Compound 9]”, which pKi (human A2BAR [1]; […] [3H]PSB-603, 2 h, 25 °C) is on record?
A: 5.87 ± 0.16

Q: What about the Ki (human A2BAR [1]; [3]) of the same molecule?
A: 1350 nM

Q: With CCCn1c(=O)c2[nH]c(-c3ccc(OCC(=O)Nc4ccc(C#N)cc4)cc3)nc2n(CCC)c1=O [Compound 13] as the molecule, how does the RT (human A2BAR [2]; 25 °C) read?
A: 69 min and 69 ± 2.4 min

Q: Which Ki (human A2BAR [1]; [4]) does the source give for CCCn1c(=O)c2[nH]c(-c3ccc(OCC(=O)N(Cc4ccccc4)Cc4ccccc4)cc3)nc2n(CCC)c1=O [Compound 27] here?
A: 120 nM

Q: With CCCn1c(=O)c2[nH]c(-c3ccc(OCC(=O)NC(c4ccccc4)c4ccccc4)cc3)nc2n(CCC)c1=O [Compound 26] as the molecule, how does the Ki (human A2BAR [1]; [3]) read?
A: 37.9 nM

Q: And the RT (human A2BAR [2]; 25 °C)?
A: 19 ± 6.2 min

Q: And the Kd (human A2BAR [2])?
A: 31 ± 16 nM

Q: What about the koff (human A2BAR [2]; read-out: koff (converted)) of the same molecule?
A: 0.000883 s⁻¹

Q: What about the kon (human A2BAR [2]; read-out: kon (converted)) of the same molecule?
A: 28300 M⁻¹ s⁻¹

Q: Which Ki (human A2BAR [1]; [3]) does the source give for CCCn1c(=O)c2[nH]c(-c3ccc(OCC(=O)Nc4ccccc4)cc3)nc2n(CCC)c1=O [Compound 8] here?
A: 1.93 nM

Q: And the RT (human A2BAR [2]; 25 °C)?
A: 46 min and 46 ± 13 min

Q: And the koff (human A2BAR [2]; read-out: koff (converted))?
A: 0.000367 s⁻¹

Q: And the kon (human A2BAR [2]; read-out: kon (converted))?
A: 250000 M⁻¹ s⁻¹

Q: CCCn1c(=O)c2[nH]c(-c3ccc(OCC(=O)Nc4ccc([N+](=O)[O-])cc4)cc3)nc2n(CCC)c1=O [Compound 14] was tested. Which Ki (human A2BAR [1]; [3]) did it give?
A: 13.5 nM

Q: And the RT (human A2BAR [2]; 25 °C)?
A: 58 min and 58 ± 19 min

Q: What about the Kd (human A2BAR [2]) of the same molecule?
A: 12 ± 4.9 nM

Q: And the koff (human A2BAR [2]; read-out: koff (converted))?
A: 0.000283 s⁻¹

Q: What about the kon (human A2BAR [2]; read-out: kon (converted)) of the same molecule?
A: 23300 M⁻¹ s⁻¹

Q: How did the Ki (human A2BAR [1]; [3]) turn out when CCCn1c(=O)c2[nH]c(-c3ccc(OCC(=O)Nc4cc[nH]n4)cc3)nc2n(CCC)c1=O [Compound 6, 2-(4-(2,6-dioxo-1,3-dipropyl-2,3,6,7-tetrahydro-1H-purin-8-yl)phenoxy)-N-(1H-pyrazol-3-yl)acetamide] was run?
A: 5480 nM

Q: Which results are given for CCCn1c(=O)c2[nH]c(-c3ccc(OCC(=O)Nc4ccc(C(C)=O)cc4)cc3)nc2n(CCC)c1=O [Compound 16]?
A: Ki (human A2BAR [1]): 3.03 nM; koff (human A2BAR [2]): 0.000317 s⁻¹; kon (human A2BAR [2]): 183000 M⁻¹ s⁻¹; RT (human A2BAR [2]; 25 °C): 54 min and 54 ± 18 min; Kd (human A2BAR [2]): 1.7 ± 0.58 nM

Q: Which Ki (human A2BAR [1]; [4]) does the source give for CCCn1c(=O)c2[nH]c(-c3ccc(OCC(=O)N(CC(=O)OCC)CC(=O)OCC)cc3)nc2n(CCC)c1=O [Compound 11] here?
A: 112 nM

Q: What does the source list for CCCn1c(=O)c2[nH]c(-c3ccc(OCC(=O)Nc4ccc(C(F)(F)F)cc4)cc3)nc2n(CCC)c1=O [Compound 15]?
A: Ki (human A2BAR [1]; [3]): 2.86 nM; kon (human A2BAR [2]; competing ligand at 1.0-fold IC50, […] [3H]PSB-603, up to 3 hr, 25 °C): Kinetics outside the range of the assay (see text)

Q: How did the Ki (human A2BAR [1]; [3]) turn out when CCCn1c(=O)c2[nH]c(-c3ccc(OCC(=O)NCc4ccc(O)c(O)c4)cc3)nc2n(CCC)c1=O [Compound 23, N-(3,4-dihydroxybenzyl)-2-(4-(2,6-dioxo-1,3-dipropyl-2,3,6,7-tetrahydro-1H-purin-8-yl)phenoxy)acetamide] was run?
A: 24.4 nM

Q: What about the Kd (human A2BAR [2]) of the same molecule?
A: 27 ± 7.9 nM

Q: And the koff (human A2BAR [2]; read-out: koff (converted))?
A: 0.00165 s⁻¹

Q: And the kon (human A2BAR [2]; read-out: kon (converted))?
A: 66700 M⁻¹ s⁻¹
